The values that follow come from patent publication US10179914B2, “CDC25A inhibitor for the treatment of drug resistant cancer or for the prevention of tumor relapse” (INSERM (INSTITUT NATIONAL DE LA SANTÉ ET DE LA RECHERCHE …, priority 2014, dated 2019).

In data set [1] the test system is HCT-116 tumor spheroids. The following applies: by induction of p21 and apoptosis; cited from earlier work.
Data set [2] deals with KG1 cells (FLT3 wild type). Kind of data set: Cell proliferation, trypan blue counting, KG1. The class given is cell-based, human. The procedure: (§1) (a) MV4-11 and MOLM-14 FLT3-ITD positive cells, KG1, HL-60 and TF-1 FLT3 wild type cells, and K562 FLT3 negative cells were cultured in the presence of the CDC25 inhibitor IRC-083864 (200 nM). Cells were harvested each day and counted after trypan blue coloration. The graph represents three independent experiments.
Cell lines and reagents. Human acute myeloid leukemia cell lines MOLM-14 (Matsuo Y et al, Leukemia 1997) (kindly provided by Martin Carroll, University of Pennsylvania, Philadelphia, Pa., USA) MV4-11, K562 (ACC-102 and ACC-10, DSMZ, Braunschweig, Germany) and FLT3-ITD-expressing murine BaF3 cells were cultured in RPMI 1640 medium (Gibco, Life Technologies, Carlsbad, Calif., USA) supplemented with 10% fetal bovine serum (Sigma, Saint Louis, Calif., USA). TF-1 (ATCC-CRL2003) cells were cultured in RPMI 1640 medium with 10% fetal bovine serum and GM-CSF 2 ng/ml. Concerning MOLM-14 cell line, the presence of a monoallelic 21 bp FLT3-ITD mutation and of an MLL-containing ins(11; 9)(q23;p22p23) were verified (Hematology laboratory of Toulouse University Hospital, Prof E. Delabesse and Dr I. Luquet). KG1 and HL-60 (ACC-14 and ACC-3, DSMZ) cell lines were grown in Iscove's Modified Dulbecco's Medium (IMDM, Gibco) plus 20% FBS. […]
(§2) siRNA. […] Twenty-four or forty-eight hours after transfection, cells were counted (trypan blue staining), and western blotting was performed.

For data set [3], the system named is human LNCaP xenografts. The following applies: intravenous and oral routes; cited from earlier work.
The conditions of data set [4]: with these regimens; cited from earlier work.
The subject of data set [5] is FLT3-ITD cells. Kind of data set: Cell death and cell cycle phase at antiproliferative concentrations. The class given is cell-based, human. The following applies: at concentrations inhibiting cell proliferation. The procedure:
Flow cytometry. Apoptotic cells were detected with Annexin V-FITC detection kit from BD Pharmingen (San Diego, Calif., USA) according to the manufacturer instructions. To evaluate AML cell differentiation, cells were stained for 30 min with the following anti-human monoclonal antibodies: CD11b-PE (Beckman Coulter), CD14-FITC (BD Biosciences), CD15-APC (BD Biosciences). For patient samples, additional hCD45-APC-H7 (BD Biosciences), Annexin V-Pacific Blue (BioLegend, San Diego, Calif., USA) and 7-AAD (Sigma) were used; and for bone marrow mice cells, additional CD33-FITC, CD44-PE Cy7, mCD45-PerCP Cy 5.5, CD14-Alexa 700 were used. Data were collected on a LSRII or a LSRFortessa cytometer (BD Biosciences), and analyzed with FlowJo software. A minimum of 10,000 events was collected.

In data set [6] the test system is MOLM-14 cells (FLT3-ITD positive). Nature of the data set: Cell proliferation, trypan blue counting, MOLM-14. The class given is cell-based, human. The following applies: 200 nM. As to the method: Cells were harvested each day and counted after trypan blue staining. The graphs represent three independent experiments.
Cell lines and reagents. […] Concerning MOLM-14 cell line, the presence of a monoallelic 21 bp FLT3-ITD mutation and of an MLL-containing ins(11; 9)(q23;p22p23) were verified (Hematology laboratory of Toulouse University Hospital, Prof E. Delabesse and Dr I. Luquet). KG1 and HL-60 (ACC-14 and ACC-3, DSMZ) cell lines were grown in Iscove's Modified Dulbecco's Medium (IMDM, Gibco) plus 20% FBS. All cells were grown in the presence of 100 units/ml of penicillin and streptomycin (Invitrogen) at 37° C. and 5% CO2.
siRNA. The MV4-11 cell line was transfected with the Amaxa nucleofection technology (Lonza, Koeln, Germany). […] Twenty-four or forty-eight hours after transfection, cells were counted (trypan blue staining), and western blotting was performed.

The subject of data set [7] is MV4-11 cells (FLT3-ITD positive). Kind of data set: Cell proliferation, trypan blue counting, MV4-11. It counts as cell-based, human. The following applies: 200 nM. The procedure:
as §1
(b) MOLM-14 and MV4-11 cells were transfected with CDC25A siRNA for 24 hours, and cells were counted after trypan blue coloration (upper panel). The efficiency of CDC25A siRNA was estimated by western blot analysis (lower panel). ns: non specific.
Cell lines and reagents. Human acute myeloid leukemia cell lines MOLM-14 (Matsuo Y et al, Leukemia 1997) (kindly provided by Martin Carroll, University of Pennsylvania, Philadelphia, Pa., USA) MV4-11, K562 (ACC-102 and ACC-10, DSMZ, Braunschweig, Germany) and FLT3-ITD-expressing murine BaF3 cells were cultured in RPMI 1640 medium (Gibco, Life Technologies, Carlsbad, Calif., USA) supplemented with 10% fetal bovine serum (Sigma, Saint Louis, Calif., USA). TF-1 (ATCC-CRL2003) cells were cultured in RPMI 1640 medium with 10% fetal bovine serum and GM-CSF 2 ng/ml. […]
as §2

The test system of data set [8] is Mia-Paca-2 tumors. The following applies: intravenous and oral routes; cited from earlier work.

Take `Cc1nc2c(s1)C(=O)C=C(NCCCN(C)CCCNC1=CC(=O)c3nc(-c4cc(F)ccc4F)oc3C1=O)C2=O` [IRC-083864]: the “growth of HCT-116 tumor spheroids” value in data set [1] was “inhibits the growth”. Moreover, the “proliferation of KG1” value in data set [2] (200 nM) is “did not decrease”. Moreover, in data set [2] (FLT3 ligand stimulation), the “proliferation of KG1 upon stimulation by FLT3 ligand” value was “had no effect”. Further, the “growth of human LNCaP xenografts” value in data set [3] was “reduces the growth”. Moreover, the apparent toxicity result in data set [4] is reported as “No sign of apparent toxicity”. In addition, in data set [5], the “accumulation in a phase of the cell cycle” value was “nor accumulation in a particular phase of the cell cycle” and the cell death result is on record as “did not induce neither significant cell death”. Moreover, the “proliferation of MOLM-14” value in data set [6] was “robust inhibition”. In addition, the “proliferation of MV4-11” value in data set [7] is reported as “robust inhibition”. In addition, the “growth of human Mia Paca-2 xenografts” value in data set [8] is listed as “reduces the growth”.
